Experimental data taken from patent US20250154169A1, “COMPOUNDS AND METHODS FOR MODULATING SPLICING” (REMIX THERAPEUTICS INC., priority 2021, published 2025).
Like-named read-outs stand apart in the source and are kept apart here.

Key:
Format in all cases: cell-based, human
MYB mRNA = assay: Splicing RT-qPCR assay, MYB canonical (CJ) and alternative (AJ) junction mRNA; conditions: for AC50: read-out: MYB AJ (AC50, increase in alternative junction mRNA)
How it was run: (§1)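 One-step RT-qPCR on cell lysates, CJ and AJ isoforms quantified; housekeeping normalization GAPDH/GUSB (K562) or PPIA (A673). Cells: A673 in DMEM/10% FBS or K562 in IMDM/10% FBS. Compounds 11-pt 3-fold, top 10 uM, 24 h, 37 °C, 5% CO2.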

SMN2 mRNA = assay: Splicing RT-qPCR gene panel, SMN2 canonical junction (CJ) mRNA; conditions: Tables 4A/4B, read-out: SMN2 (IC50, decrease in CJ mRNA, gene panel)
Experimental: (§2) Compounds described herein were used to modulate RNA transcript abundance in cells. The expression of a target mRNA was measured by detecting the formation of an exon-exon junction in the canonical transcript (CJ). A compound mediated exon-inclusion event was detected by observing an increase in formation of a new junction with an alternative exon (AJ). Real-time qPCR assays were used to detect these splicing switches and interrogate the potency of various compounds towards different target genes. A high-throughput real time quantitative PCR (RT-qPCR) assay was developed to measure these two isoforms of the mRNA (CJ and AJ) for exemplary genes, such as HTT, SMN2, and MYB, together with a control housekeeping gene, GAPDH or GUSB or PPIA, used for normalization. Briefly, the A673 or K562 cell line was treated with various compounds described herein (e.g., compounds of Formula (I)). After treatment, the levels of the HTT, MYB, or SMN2 mRNA targets were determined from each sample of cell lysate by cDNA synthesis followed by qPCR.
(§3) The A673 cell line was cultured in DMEM with 10% FBS. Cells were diluted with full growth media and plated in a 96-well plate (15,000 cells in 100 ul media per well). The plate was incubated at 37° C. with 5% CO2 for 24 hours to allow cells to adhere. An 11-point 3-fold serial dilution of the compounds was made in DMSO then diluted in media in an intermediate plate. Compounds were transferred from the intermediate plate to the cell plate with the top dose at a final concentration of 10 uM in the well. Final DMSO concentration was kept at or below 0.25%. The cell plate was returned to the incubator at 37° C. with 5% CO2 for an additional 24 hours.
(§4) The K562 cell line was cultured in IMDM with 10% FBS. For K562, cells were diluted with full growth media and plated in either a 96-well plate (50,000 cells in 50 uL media per well) or a 384-well plate (8,000-40,000 cells in 45 uL media per well). An 11-point 3-fold serial dilution of the compounds were made in DMSO then diluted in media in an intermediate plate. Compound was transferred from the intermediate plate to the cell plate with the top dose at a final concentration of 10 uM in the well. Final DMSO concentration was kept at or below 0.25%. Final volume was 100 uL for 96-well plate and 50 uL for 384-well plate. The cell plate was then placed in an incubator at 37° C. with 5% CO2 for 24 hours.
(§5) The cells were then gently washed with 50 uL-100 uL cold PBS before proceeding to addition of lysis buffer. 30 uL-50 uL of room temperature lysis buffer with DNAse I (and optionally RNAsin) was added to each well. Cells were shaken/mixed thoroughly at room temperature for 5-10 minutes for lysis to take place and then 3 uL-5 uL of room temperature stop solution was added and wells were shaken/mixed again. After 2-5 minutes, the cell lysate plate was transferred to ice for RT-qPCR reaction setup. The lysates could also be frozen at −80° C. for later use.
(§6) In some cases, a direct lysis buffer was used. An appropriate volume of 3× lysis buffer (10 mM Tris, 150 mM NaCl, 1.5%-2.5% Igepal and 0.1-1 U/uL RNAsin, pH 7.4) was directly added to either K562 or A673 cells in media and mixed by pipetting 3 times. The plates were then incubated at room temperature with shaking/rocking for 20-50 minutes to allow for lysis to take place. After this time, the cell lysate plate was transferred to ice to set up for the RT-qPCR reactions. The lysates could also be frozen at −80° C. for later use.
(§7) To set up 10 uL RT-qPCR reactions, cell lysates were transferred to 384-well qPCR plates containing the master mix according to the table below. The plates were sealed, gently vortexed, and spun down before the run. The volumes were adjusted accordingly in some instances where the reaction was carried in 20 μL. The table below summarizes the components of the RT-qPCR reactions:
(§8) The RT-qPCR reaction was performed using a QuantStudio (ThermoFisher) under the following fast cycling conditions. […]

HTT mRNA [1] = assay: Splicing RT-qPCR gene panel, HTT canonical junction (CJ) mRNA; conditions: Tables 4A/4B, read-out: HTT (IC50, decrease in CJ mRNA, gene panel)
Experimental: as §2, §3, §4, §5, §6, §7, §8

Target C mRNA = assay: Splicing RT-qPCR gene panel, Target C canonical junction (CJ) mRNA; conditions: Tables 4A/4B, read-out: Target C (IC50, decrease in CJ mRNA, gene panel)
Experimental: as §2, §3, §4, §5, §6, §7, §8

HTT mRNA [2] = assay: Splicing RT-qPCR assay, HTT canonical (CJ) and alternative (AJ) junction mRNA; conditions: Homo sapiens, A673 or K562 cells, 24 hours compound treatment; for IC50: 24 h, read-out: HTT CJ (IC50, decrease in canonical junction mRNA); for AC50: read-out: HTT AJ (AC50, increase in alternative junction mRNA)
How it was run: as §1

[3] = Homo sapiens, Tables 4A/4B, canonical junction qPCR panel, read-out: MYB (IC50, decrease in CJ mRNA, gene panel)
[4] = Homo sapiens, 24 h, A673 or K562 cells, 24 hours compound treatment, RT-qPCR
[5] = Homo sapiens, 24 h, A673 or K562 cells, 24 hours compound treatment, RT-qPCR, read-out: MYB CJ (IC50, decrease in canonical junction mRNA)

Structure (SMILES) | IC50 (MYB mRNA; [3]) | IC50 (SMN2 mRNA; Homo sapiens) | IC50 (HTT mRNA [1]; Homo sapiens) | IC50 (Target C mRNA; Homo sapiens) | also measured
Cc1cn2cc(NC(=O)c3ccc(N4CC[C@H](NC5(CF)CC5)C4)c4cn(C)nc34)cc(F)c2n1 (single isomer, unassigned) [Compound 449] | < 0.1 µM | < 0.1 µM | 1 to 10 µM | > 10 µM | –
Cc1cn2cc(NC(=O)c3ccc(N4CCC(NC(C)(C)C)C4)c4cc(C)oc34)cc(F)c2n1 (stereo not drawn) [Compound 203] | 0.1 to 1 µM | < 0.1 µM | > 10 µM | > 10 µM | –
Cc1cn2cc(NC(=O)c3ccc(N4CCN(C)CC4)c4cn(C)nc34)cc(F)c2n1 [Compound 207] | < 0.1 µM | < 0.1 µM | 0.1 to 1 µM | 1 to 10 µM | –
Cc1cn2cc(NC(=O)c3ccc(C4C[C@@H](C)N[C@@H](C)C4)c4cn(C)nc34)cc(F)c2n1 (stereo partly drawn) [Compound 211] | 0.1 to 1 µM | < 0.1 µM | 1 to 10 µM | 1 to 10 µM | –
Cc1cc2c(N3CCNCC3)ccc(C(=O)Nc3cc(F)c4nc(C)oc4c3)c2o1 [Compound 218] | 0.1 to 1 µM | < 0.1 µM | 1 to 10 µM | 1 to 10 µM | –
Cc1cn2cc(NC(=O)c3ccc(N4CCNC(C)C4)c4cn(C)nc34)cc(F)c2n1 (stereo not drawn) [Compound 228] | < 0.1 µM | < 0.1 µM | 0.1 to 1 µM | 0.1 to 1 µM | –
Cc1nc2c(F)cc(NC(=O)c3ccc(N4CCNCC4)c4cn(C)nc34)cc2o1 [Compound 234] | < 0.1 µM | < 0.1 µM | 1 to 10 µM | 1 to 10 µM | –
Cc1cn2cc(NC(=O)c3ccc(N4CCNC5(CC5)C4)c4cn(C)nc34)cc(F)c2n1 [Compound 241] | 0.1 to 1 µM | < 0.1 µM | 0.1 to 1 µM | 1 to 10 µM | –
Cc1cn2cc(NC(=O)c3ccc(N4CCN5CCCC5C4)c4cn(C)nc34)cc(F)c2n1 (stereo not drawn) [Compound 250] | < 0.1 µM | < 0.1 µM | < 0.1 µM | 0.1 to 1 µM | –
Cc1cn2cc(NC(=O)c3ccc(N4CCC(N(C)C)CC4)c4cn(C)nc34)cc(F)c2n1 [Compound 251] | < 0.1 µM | < 0.1 µM | 0.1 to 1 µM | 1 to 10 µM | –
CCNC1CCN(c2ccc(C(=O)Nc3cc(F)c4nc(C)cn4c3)c3nn(C)cc23)CC1 [Compound 252] | < 0.1 µM | < 0.1 µM | 0.1 to 1 µM | 0.1 to 1 µM | –
Cc1cn2cc(NC(=O)c3ccc(N4CCNC(C)C4)c4cn(C)nc34)cc(Cl)c2n1 (stereo not drawn) [Compound 277] | < 0.1 µM | < 0.1 µM | 0.1 to 1 µM | 1 to 10 µM | –
Cc1cn2cc(NC(=O)c3ccc(N4C[C@H]5CC[C@@H](C4)N5)c4cn(C)nc34)cc(Cl)c2n1 [Compound 279] | < 0.1 µM | < 0.1 µM | 1 to 10 µM | 1 to 10 µM | –
CCn1cc2c(N3CCNCC3)ccc(C(=O)Nc3cc(Cl)c4nc(C)cn4c3)c2n1 [Compound 284] | < 0.1 µM | < 0.1 µM | 1 to 10 µM | 1 to 10 µM | –
Cc1cn2cc(NC(=O)c3ccc(N4CCNCC4)c4cn(C)nc34)cc(Cl)c2n1 [Compound 285] | – | – | – | – | IC50 (MYB mRNA; Tables 4A/4B, canonical junction qPCR panel, read-out: MYB (IC50, decrease in CJ mRNA, gene panel)): < 0.1 µM; IC50 (SMN2 mRNA): < 0.1 µM; IC50 (HTT mRNA [1]): 0.1 to 1 µM; IC50 (Target C mRNA): 0.1 to 1 µM
CCn1cc2c(N3CCNCC3)ccc(C(=O)Nc3cc(F)c4nc(C)cn4c3)c2n1 [Compound 288, 2-ethyl-N-{8-fluoro-2-methylimidazo[1,2-a]pyridin-6-yl}-4-(piperazin-1-yl)indazole-7-carboxamide] | < 0.1 µM | < 0.1 µM | 1 to 10 µM | 1 to 10 µM | –
Cc1cn2cc(NC(=O)c3c(F)cc(N4CCNCC4)c4cn(C)nc34)cc(F)c2n1 [Compound 361, 6-fluoro-N-{8-fluoro-2-methylimidazo[1,2-a]pyridin-6-yl}-2-methyl-4-(piperazin-1-yl) indazole-7-carboxamide] | < 0.1 µM | < 0.1 µM | < 0.1 µM | < 0.1 µM | –
C=Cn1cc2c(N3CCNCC3)ccc(C(=O)Nc3cc(F)c4nc(C)cn4c3)c2n1 [Compound 363, 2-ethenyl-N-{8-fluoro-2-methylimidazo[1,2-a]pyridin-6-yl}-4-(piperazin-1-yl) indazole-7-carboxamide] | < 0.1 µM | < 0.1 µM | < 0.1 µM | < 0.1 µM | –
Cc1cn2cc(N(C)C(=O)c3ccc(N4CCNCC4)c4cn(C)nc34)cc(F)c2n1 [Compound 386, N-{8-fluoro-2-methylimidazo[1,2-a]pyridin-6-yl}-N,2-dimethyl-4-(piperazin-1-yl) indazole-7-carboxamide] | > 10 µM | > 10 µM | > 10 µM | > 10 µM | –
Cc1cn2cc(NC(=O)c3ccc(N4CCC5(CC4)CCN5C)c4cn(C)nc34)cc(F)c2n1 [Compound 422, N-{8-fluoro-2-methylimidazo[1,2-a]pyridin-6-yl}-2-methyl-4-{1-methyl-1,7-diazaspiro[3.5]nonan-7-yl}indazole-7-carboxamide; bis(trifluoroacetic acid)] | < 0.1 µM | < 0.1 µM | < 0.1 µM | 0.1 to 1 µM | –
Cc1cn2cc(NC(=O)c3ccc(N4CC[C@@H](NC5CC5(C)C)C4)c4cn(C)nc34)cc(F)c2n1 (stereo partly drawn) [Compound 645] | – | – | – | – | IC50 (HTT mRNA [2]): 1 to 10 µM; AC50 (HTT mRNA [2]): > 10 µM; AC50 (MYB mRNA; [4]): 0.1 to 1 µM; IC50 (MYB mRNA; [5]): 0.1 to 1 µM
Cc1cn2cc(NC(=O)c3ccc(N4CC[C@@H](NC5CC56CCOCC6)C4)c4cn(C)nc34)cc(F)c2n1 (stereo partly drawn) [Compound 649] | – | – | – | – | IC50 (HTT mRNA [2]): > 10 µM; AC50 (HTT mRNA [2]): > 10 µM; AC50 (MYB mRNA; [4]): 0.1 to 1 µM; IC50 (MYB mRNA; [5]): 0.1 to 1 µM
CN[C@@H]1CCN(c2ccc(C(=O)Nc3nc(OC)c4nc(C)cn4c3F)c3nn(C)cc23)C1 [Compound 651] | – | – | – | – | IC50 (HTT mRNA [2]): > 10 µM; AC50 (HTT mRNA [2]): > 10 µM; AC50 (MYB mRNA; [4]): > 10 µM; IC50 (MYB mRNA; [5]): > 10 µM
CCn1cc2c(N3CC[C@@H](NC)C3)cc(OC)c(C(=O)Nc3cc(F)c4nc(C)cn4c3)c2n1 [Compound 653] | – | – | – | – | IC50 (HTT mRNA [2]): > 10 µM; AC50 (HTT mRNA [2]): > 10 µM; AC50 (MYB mRNA; [4]): > 10 µM; IC50 (MYB mRNA; [5]): > 10 µM
